In the assay the target is Estrogen receptor (Homo sapiens) (UniProt P03372). The assay is described as follows: ERalpha agonist signaling via PH-RFP relocation – imaging, Cos7 ERalpha-GFP, PH-RFP reporter, orthogonal assay for ERalpha ligand project (AID 1226). Particulars: PIP3 nuclear translocation imaging, at 10 µM, stronger effect = higher value.

Inconclusive results are not listed. Active and inactive are the calls of the source.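 The calls were made as follows: active = score of 100, fluorescent reporter fully moved to nucleus as with estrogen, or estrogen effect fully blocked; inactive = score of 0 or 50, partial or no effect.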

Sequence of Estrogen receptor (Homo sapiens) (P03372 whole entry, looked up): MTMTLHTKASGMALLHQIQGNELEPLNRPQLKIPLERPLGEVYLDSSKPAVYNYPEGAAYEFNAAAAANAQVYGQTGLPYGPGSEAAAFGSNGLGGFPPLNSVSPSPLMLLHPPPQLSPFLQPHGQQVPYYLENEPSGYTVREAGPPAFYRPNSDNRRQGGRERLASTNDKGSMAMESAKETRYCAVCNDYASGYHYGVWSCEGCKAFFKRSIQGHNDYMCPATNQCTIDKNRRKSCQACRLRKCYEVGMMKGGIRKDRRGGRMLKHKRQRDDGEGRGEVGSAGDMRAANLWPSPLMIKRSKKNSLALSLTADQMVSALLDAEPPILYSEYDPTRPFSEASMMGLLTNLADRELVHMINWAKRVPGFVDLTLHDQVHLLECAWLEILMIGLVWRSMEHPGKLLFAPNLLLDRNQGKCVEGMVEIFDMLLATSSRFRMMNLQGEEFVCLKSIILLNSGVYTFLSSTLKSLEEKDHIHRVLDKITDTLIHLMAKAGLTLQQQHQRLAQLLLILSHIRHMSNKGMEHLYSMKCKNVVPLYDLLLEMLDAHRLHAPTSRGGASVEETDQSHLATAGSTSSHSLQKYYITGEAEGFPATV

Take `Cc1cc(C)c2c(c1)[C@@H]1C=CC[C@@H]1[C@H](c1ccc(S(=O)(=O)N3CCOCC3)cc1)N2`: the translocation response score is 100. With `Nc1ncnc2c1ncn2C1CCC(CO)C(O)C1` (stereo not drawn) the figure was 100. As to `COc1ccccc1N1CCN(C(=O)c2ccc3nc(-c4ccco4)c(-c4ccco4)nc3c2)CC1`, the translocation response score is 50 (inactive). Regarding `Brc1cc2c(cc1C1Nc3ccccc3C3C=CCC31)OCO2` (stereo not drawn), the translocation response score is 0 (inactive). With `Cc1cc(-c2nn3c(-c4ccccc4)nnc3s2)c2ccccc2n1` the figure was 100; with `O=C(O)c1cc(Cl)c2c(c1)[C@@H]1C=CC[C@@H]1[C@H](c1ccc(S(=O)(=O)N3CCOCC3)cc1)N2`, 50 (inactive); with `COc1cccc(NS(=O)(=O)c2ccc3c(c2)C2C=CCC2C(c2ccc(C(=O)O)cc2)N3)c1` (stereo not drawn), 50 (inactive). With `O=C(O)c1ccc2c(c1)C1C(Cl)C(Sc3ccccc3[N+](=O)[O-])CC1C(c1cccc([N+](=O)[O-])c1)N2` (stereo not drawn), the translocation response score was 0 (inactive).

(Values after PubChem BioAssay AID1226 (NMMLSC, 2008).)
